# From US20230381183A1, “USE OF FOLIC ACID AND FOLATE MODIFICATION IN INDUCING B-CELL IMMUNE TOLERANCE AND TARGETING mIgM-POSITIVELY-EXPRESSED B-CELL LYMPHOMA” (FUDAN UNIVERSITY, priority 2020, published 2023)
# Where no end group is shown, it is not given here.
# Legend:
# [1] = test system: experimental autoimmune encephalomyelitis (EAE) model; experiment: Experimental autoimmune encephalomyelitis (EAE) model; format: in vivo, female C57/BL6 mice; settings: 10 μg/mouse iv once a week x3 before PLP emulsion induction
# Method: The efficacy of folate modification in autoimmune encephalomyelitis was investigated using an experimental autoimmune encephalomyelitis (EAE) model. The model was established as follows: the animals were injected with whole protein or protein fragment (e.g., PLP polypeptide) that induces nerve cell myelin sheath and peripheral protein, causing inflammation and demyelination symptoms and inducing the autoimmune response of the animal: thereby the injected self-proteins are regarded as foreign objects and cause the immune system to attack the self myelin sheath.
# The female C57/BL6 mice were intravenously injected with PLP polypeptide (amino acid sequence. […]) or folate-PLP complex (FA-PLP) at a dose of 10 μg/mouse, once a week for three times in total. One week later, the emulsion of PLP polypeptide in Freund's complete adjuvant was prepared, the concentration of PLP being 1 μg/μL. Four points were set up on both sides of the back of the mouse, and 0.05 mL PLP emulsion was injected subcutaneously at each point to induce inflammation, 2 and 24 hours after PLP injection, 150 ng pertussis toxin was injected intraperitoneally. The incidence in the mice was observed every day, and the mice were scored according to the 5-point scoring standard (Kono method). The incidence scoring curve was plotted.
# [2] = test system: antibodies against sLip; experiment: Serum antibodies against liposomes (sLip) by ELISA; format: in vivo, BALB/c female mice; settings: mixed solution of liposome 5 mg/kg and 10 μg or 50 μg FA, single dose tail vein; serum 5 days after
# Method: Liposomes (sLip) were prepared firstly. HSPC. Chol and mPEG2000-DSPE (all purchased from AVT (Shanghai) Pharmaceutical Tech Co., Ltd.) were weighted in a molar ratio of 52:43:5. The film materials were dissolved in 5 mL chloroform, and the mixture was subjected to rotary evaporation under reduced pressure to remove chloroform, to obtain a uniform lipid film. Residual organic solvent was removed by vacuum drying overnight. Shaking in a water bath at 60° C. was performed until the liposome membrane is completely hydrated to obtain white liposome suspension. The liposome suspension went through 200 and 100 nuclear pore membrane by a micro-extruder sequentially, to obtain a liquid with pale blue opalescence, i.e., a liposome (sLip) solution.
# The BALB/c female mice (6 weeks old) were randomly divided into sLip group, sLip+FA (10 μg) group, sLip+FA (50 μg) group and physiological saline group, with 4 mice in each group. For the sLip group, the liposome solution (5 mg liposome/kg mouse body weight) was administered in a single dose via tail vein. For sLip+FA([…]) group, a mixed solution of liposome (5 mg liposome/kg mouse body weight) and 10 μg FA was administered in a single dose via tail vein. […] Serum was collected from all mice 5 days after administration, and was measured by ELISA for the concentrations of the antibodies against sLip.
# [3] = Water solubility (observation on preparation); format: physicochemical
# [4] = test system: KLH-specific antibodies; experiment: Oral folic acid: serum KLH-specific antibodies by ELISA; format: in vivo, BALB/c female mice; settings: FA(ig) group vs physiological saline group; days 21, 28, 35
# Method: (§1) The BALB/c female mice (5 weeks old) were randomly divided into 4 groups, with 6 mice in each group, and were treated as follows: (1) FA(ig) group: each mouse was administered with 3 mg free folic acid by gavage every day for two weeks: (2) FA(ig)+OVA group: each mouse was administered with 3 mg free folic acid by gavage every day for two weeks, and was administered with OVA via tail vein injection on day 0 and day 7 respectively (10 μg/mouse): (3) OVA group: each mouse was administered with OVA via tail vein injection on days 0 and day 7 respectively (10 μg/mouse); (4) Physiological saline group: each mouse was administered with physiological saline via tail vein injection on day 0 and day 7 respectively. Then, on days 14, 21 and 28, all mice were administered with 100 μl mixed solution of OVA and KLH (hemocyanin) in water (100 μg/mL OVA and 100 ug/mL KLH). The serum was collected before the administration of the mixed solution on days 14, 21 and 28 and on day 35. The specific antibodies in the serum were detected by ELISA. […] The results also confirmed that the immune function of the body recovered when the administration of FA is discontinued.
# [5] = test system: OVA-specific IgG; experiment: Oral folic acid: serum OVA-specific IgG by ELISA; format: in vivo, BALB/c female mice
# Method: as §1, with “The” for “The results also confirmed that the”
# [6] = test system: antibodies against infliximab; experiment: Serum antibodies against infliximab by ELISA; format: in vivo, BALB/c female mice; settings: FA gavage+infliximab group: 3 mg free folic acid per day for two weeks, infliximab 60 μg/mouse iv days 0, 7, 14; serum day 21
# Method: The BALB/c female mice (6 weeks old) were randomly divided into infliximab group, FA gavage+infliximab group and physiological saline group, with 5 mice in each group. For the infliximab group, a dose of 60 μg antibody/mouse was administrated via tail vein injection on days 0, 7 and 14. For the FA gavage+infliximab group, each mouse was administered with 3 mg free folic acid by gavage per day for two weeks, and infliximab was administered via tail vein injection at a dose of 60 μg antibody/mouse on days 0, 7 and 14. For the physiological saline group, the mice were injected with physiological saline via tail vein on days 0, 7 and 14. One week after the last administration (day 21), the serum was collected from the mice, and was measured by ELISA for the antibodies against infliximab.
# [7] = test system: antibodies against trastuzumab; experiment: Serum antibodies against trastuzumab by ELISA; format: in vivo, BALB/c female mice; settings: FA gavage+trastuzumab group: 3 mg free folic acid per day for two weeks, trastuzumab 60 μg/mouse iv days 0, 7, 14; serum day 21
# Method: For the FA gavage+trastuzumab group, each mouse was administered by gavage with 3 mg free folic acid per day for two weeks, and trastuzumab was administered via tail vein injection at a dose of 60 μg antibody/mouse on days 0, 7 and 14. For the physiological saline group, the mice were injected with physiological saline via tail vein on days 0, 7 and 14. One week after the last administration (day 21), the serum was collected from the mice, and was measured by ELISA for the antibodies against trastuzumab.
# [8] = test system: Anti-Drug Antibodies (ADAs); settings: phase I single-dose study, healthy subjects; cited from earlier work
molecule,measurement,setting,value
"FA-PLP: folate-modified PLP polypeptide HSLGKWLGHPDKF (also: folate conjugate, site not given here)","immune tolerance to PLP / inflammatory response (incidence score, Kono method)",[1],causes the body's immune tolerance to PLP and contributes to reducing the inflammatory response
Nc1nc2ncc(CNc3ccc(C(=O)N[C@@H](CCC(=O)O)C(=O)O)cc3)nc2c(=O)[nH]1 [folic acid],production of the antibodies against liposomes (sLip),[2],"effectively reduce the production of the antibodies against liposomes, and the effect increases as the concentration of folic acid increases"
same,water solubility,[3],insoluble in water
same,levels of KLH-specific antibodies in serum,[4],similar
same,level of OVA-specific IgG in the serum,"[5]; day 28, FA(ig)+OVA group, after FA discontinued",comparable to that in the OVA group
same,level of OVA-specific IgG in the serum,"[5]; days 14 and 21, FA(ig)+OVA group: 3 mg free folic acid by gavage daily for two weeks, OVA 10 μg/mouse iv day 0 and 7",significantly lower than that in the OVA group
same,level of antibodies against infliximab,[6],significantly lower than that in the infliximab group
same,level of antibodies against trastuzumab,[7],significantly lower than that in the trastuzumab group
adalimumab,incidence of ADAs,[8],70-100%
